Reference: doi:10.1101/2023.11.15.567208 (bioRxiv, 2024)
Entries after “also recorded” stand apart in the source; their conditions may differ.

Key:
[1] = Chemical algogens, licking behavior after intraplantar injection; format: in vivo, mouse; conditions: 20 μl intraplantar, time licking in 5 min
Procedure: 0.3% capsaicin in 80% saline / 10% Tween-80 / 10% ethanol or 1% AITC in saline was injected into the plantar surface of the hind paw. The injected volume for both was 20 μl. Mice were video-taped for 5 minutes. A blinded observer scored the amount of time in seconds the mouse spent licking the injected paw in a 5-minute time period.

[2] = Hindpaw swelling / oedema, paw volume; format: in vivo, mouse; conditions: for Swelling of the hindpaw: hindpaw of DKO mice compared with WT, observation on injection; for Paw oedema (paw volume): intraplantar injection, volume normalized to uninjected paw, capsaicin WT n=9, DKO n=7, AITC n=8 each
Procedure: (§1) Mice were anesthetized using isoflurane. 200 μl of Evans Blue dye was injected into the mouse’s tail vein. 15 mins later, one hindpaw was injected with an algogen. After a further 30 mins, the volume of each paw was measured by displacement using a plethysmometer (Ugo Basile). Both paws were then cut at the ankle and placed in tubes in the oven at 55 °C for 24 hours to dry. 1 ml of formamide was then added to each paw and incubated for 4–6 days at 55 °C to extract the dye from the paw tissue. 50 μl samples of dye-infused formamide from each paw were then dispensed to a 96 well plate in duplicate, along with a range of Evans blue dilutions in formamide to generate a standard curve. The optical density of each sample was then measured using a plate-reader, and the concentration of Evans Blue per paw sample interpolated from the standard curve to generate an index of extravasation in that paw.

[3] = Plasma extravasation, Evans blue dye; format: in vivo, mouse; conditions: Evans blue optical density, normalized to uninjected paw; capsaicin WT n=9, DKO n=7; AITC n=8 each
Procedure: as §1

[4] = LiCl conditioned taste aversion; format: in vivo, mouse; conditions: lithium chloride 200 mg/kg injection paired with 15 mM saccharin; WT n=7, DKO n=6
Procedure: Mice were single-housed and habituated for 3 days to drink from two glass bottles with stainless-steel ball-bearing spouts. Mice then received 3 days of training, where they were water-deprived for 22 hours followed by 30 mins exposure to a single water-containing bottle, then 90 mins exposure to both bottles. On the conditioning day, after 22 hours of water deprivation, mice were exposed to a single bottle containing saccharin water (15 mM) for 45 mins. Mice were then injected with lithium chloride (200 mg/kg) or PBS, and then given ordinary water for 75 mins. The animals were then water deprived for a further 22 hours. On the test day, mice were simultaneously exposed to a bottle containing water and a bottle containing saccharin for 45 mins. The volume of each solution consumed was measured by weighing the bottles before and after. To calculate the saccharin preference index of each animal, the volume of saccharin consumed was divided by the total of fluid consumed, with a value less than 0.5 indicating the development of an aversion to saccharin. […]
bioRxiv preprint doi: https://doi.org/10.1101/2023.11.15.567208; this version posted December 2, 2024. […]
Figure 2 – f igure supplement 2. Tac1::Calca DKO mice develop LiCl-induced conditioned taste aversion (A) Quantification of conditioned taste aversion (CT A) test in W T (blue ) and DKO (red) mice. […]

[5] = Inflammatory pain model, Hargreaves radiant heat; format: in vivo, mouse; conditions: PGE2 20 μl, 500 nM intraplantar
Procedure: The radiant heat stimulus was aimed for the centre of the plantar region of the mouse’s hind paw. The active intensity of the low stimulus was 40 intensity units, and of the high stimulus 55. The response latency was recorded for 5 trials with 10-minute breaks in between each trial.
CFA and PGE2 was purchased from Sigma. 20 μl of CFA was injected into the heel of the hind paw. PGE2 (20 μl, 500 nM) was injected into the plantar surface of the hindpaw, and behavior was assessed over the same time-frame that produces in vivo sensitization of nociceptor responses (up to 120 minutes). Inflammation-induced hypersensitivity was measured using the Hargreaves and the von Frey, as described above.

[6] = 0.6% acetic acid, 10 μl per gram, intraperitoneal; writhes in 15 min starting 5 min after injection; WT n=9, DKO n=7
Procedure: Mice were habituated on a plexiglass stand for 1 hour. 0.6% of acetic acid was injected intraperitoneally at a dose of 10 μl per gram weight of the animal. Mice were videotaped for 20 minutes. The number of writhes was quantified post-hoc by a blinded observer during a 15-minute interval between 5 and 20 minutes after injection.

[7] = Acetone evoked cold response; format: in vivo, mouse; conditions: acetone droplet on paw; time licking in 60 s; WT n=12, DKO n=12
Procedure: Mice were habituated on a plexiglass floor stand for 1 hour. Mice were videotaped as acetone was applied to the plantar region of their hind paw. Acetone was applied using a custom-made applicator, consisting of a 1ml syringe and plastic well where acetone was pushed out to generate a droplet for applying to the paw. Behavior was scored post-hoc by a blinded observer and the total amount of time spent licking the paw in a 60 second time interval was recorded. The experiment was repeated for a second trial and average scores were used.

[8] = test system: dorsal horn network activation; assay: Capsaicin-evoked dorsal horn Fos staining; format: in vivo; conditions: capsaicin 0.3% into right hindpaw; WT n=5, DKO n=4; mean Fos puncta of 5 sections per mouse
[9] = target: T1, CGRP receptor (Calcrl and Ramp1) (Mus musculus, UniProt Q9R1W5+Q9WTJ5); assay: Co-culture of DRG neurons with CGRP-sniffer cells, capsaicin-evoked CGRPα release; format: cell-based; conditions: capsaicin 10 μM, n=18 wells from 3 mice
T1 construct: expressed in transfected cells; host or cells: HEK293; Calcrl/Gα15/GCaMP6s by PiggyBac transposase (puromycin), Ramp1 by pSBbi-Neo-cmv-TETo2-RAMP1 IRES-mTagBFP2-NLS (geneticin); doxycycline-induced
T1 sequence (Q9R1W5 23-463): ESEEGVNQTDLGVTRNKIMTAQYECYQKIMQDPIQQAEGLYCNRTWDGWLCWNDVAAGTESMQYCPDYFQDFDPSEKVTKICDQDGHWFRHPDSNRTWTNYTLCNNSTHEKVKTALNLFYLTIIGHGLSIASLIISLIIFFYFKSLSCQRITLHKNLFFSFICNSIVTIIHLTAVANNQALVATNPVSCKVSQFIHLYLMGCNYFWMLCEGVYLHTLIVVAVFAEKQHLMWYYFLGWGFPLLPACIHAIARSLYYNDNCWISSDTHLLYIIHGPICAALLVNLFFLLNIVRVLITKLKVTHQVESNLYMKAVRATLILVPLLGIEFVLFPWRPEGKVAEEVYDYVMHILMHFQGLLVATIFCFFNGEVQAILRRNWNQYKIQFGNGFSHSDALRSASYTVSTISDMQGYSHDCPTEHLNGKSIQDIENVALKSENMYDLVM
T1 sequence (Q9WTJ5 27-148): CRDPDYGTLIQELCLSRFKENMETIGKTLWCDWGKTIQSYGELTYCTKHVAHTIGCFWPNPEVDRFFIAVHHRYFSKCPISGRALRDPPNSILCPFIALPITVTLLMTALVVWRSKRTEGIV

[10] = target: T2, Substance P receptor (NKR1) (Mus musculus, UniProt P30548); assay: Co-culture of DRG neurons with Substance P-sniffer cells, capsaicin-evoked Substance P release; format: cell-based; conditions: capsaicin 10 μM, n=12 wells from 2 mice; for Substance P-sniffer GCaMP response, WT DRG: co-culture with WT (control) DRG neurons
T2 construct: T2A self-cleaving peptide remnant (from the polycistronic P2A-TACR1-T2A cassette) (C); expressed in transfected cells; host or cells: Flp-In T-REx HEK293 (Thermo Fisher Scientific, R78007), lentiviral transduction, hygromycin selection
T2 sequence (P30548 whole entry): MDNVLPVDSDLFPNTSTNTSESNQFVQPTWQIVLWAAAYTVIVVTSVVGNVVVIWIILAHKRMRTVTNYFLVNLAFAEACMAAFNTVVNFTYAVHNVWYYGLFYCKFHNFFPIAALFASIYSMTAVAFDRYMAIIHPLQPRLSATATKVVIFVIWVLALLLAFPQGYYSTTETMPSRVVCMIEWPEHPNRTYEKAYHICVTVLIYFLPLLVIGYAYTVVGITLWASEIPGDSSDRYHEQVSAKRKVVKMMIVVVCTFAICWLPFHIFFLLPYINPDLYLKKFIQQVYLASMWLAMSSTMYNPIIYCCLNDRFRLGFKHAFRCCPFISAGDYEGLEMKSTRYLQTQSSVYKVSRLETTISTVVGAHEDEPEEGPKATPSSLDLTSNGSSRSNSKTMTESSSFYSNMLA

[11] = Chloroquine-induced itch, scratching bouts; format: in vivo, mouse; conditions: 20 μl of 25 μM chloroquine diphosphate intradermal, nape of neck; scratching bouts in 15 min; WT n=8, DKO n=11
Procedure: Hair from the nape of the mouse’s neck was removed 2–3 days prior to behavioral experiments using VEET hair removal cream and the area thoroughly washed and moisturizing cream applied. Mice were habituated to transparent acrylic chambers (10cm × 10cm × 13cm) 30 minutes prior to injection. Post habituation, a blinded investigator injected 20 μl of 25 μM Chloroquine diphosphate salt (Sigma-Aldrich: C6628) solution in 0.9% saline intradermally into the nape of the neck using a 31G insulin syringe. Videos were quantified by a separate blinded investigator with a scratching bout counted each time the mouse attended to the injected area with the hind paw after the paw was removed from the floor or mouth.

[12] = ref MacDonald et al., 2021; cited from earlier work
From the text: Lastly, we investigated how dual peptide deletion affected the development of allodynia symptoms, where innocuous stimuli are perceived as painful, in two mouse models of neuropathic pain ([Jensen and Finnerup, 2014]).

[13] = Oxaliplatin cold allodynia, Cold Plate; format: in vivo, mouse; conditions: one day after intraplantar oxaliplatin; Cold Plate 10 °C, 5 min; WT n=9, DKO n=6
From the text: The plate was set to the desired temperature. A camera set up with a mirror was used for better visibility of the mouse on the hot plate. A clear cylindrical tube was placed around the hot plate to ensure the mouse cannot escape. Once the hot plate reached the set temperature, the mouse was placed on the hot plate and the top of the cylinder was covered. At the cut-off time, the mouse was taken off the hot plate and placed back in the cage. The latency to lick was scored post-hoc using the recorded videos by a blinded observer.
Chemotherapy-induced neuropathy was induced in mice by intraplantar injection of oxaliplatin into the left hind paw ([Deuis et al., 2013]; [MacDonald et al., 2021]). Oxaliplatin was made up to a dose of 80 μg in 40 μl of 5% glucose solution, due to its instability in chloride-containing saline solution. The number of nocifensive behaviors in 5 mins was assessed on the Cold Plate held at 10 °C 24 hours later.

C=CCN=C=S [AITC, allyl isothiocyanate]
Licking behavior, AITC ([1]; 1% AITC in saline, WT n=12, DKO n=12): evoked similar licking behavior to capsaicin that was unaffected by peptide deletion
Swelling of the hindpaw [2]: provoked swelling of the hindpaw of DKO mice to a similar extent as WT mice
Paw oedema (paw volume) [2]: both WT and DKO mice show paw swelling
Plasma extravasation [3]: both WT and DKO mice show paw swelling and plasma extravasation

[Cl-].[Li+] [LiCl, lithium chloride]
Conditioned taste aversion (saccharin preference) [4]: pr onoun ced; also recorded: strong and indistinguishable conditioned taste aversion in both WT and DKO mice

CCCCC[C@H](O)/C=C/[C@H]1[C@H](O)CC(=O)[C@@H]1C/C=C\CCCC(=O)O [PGE2, Prostaglandin E2]
Swelling of the hindpaw [2]: provoked swelling of the hindpaw of DKO mice to a similar extent as WT mice
WT vs DKO difference in Hargreaves latency after PGE2, post-hoc ([5]; post-hoc Sidak's test, WT n=10, DKO n=10): only the 120 min time-point shows a significant difference (p=0.025)
Heat and mechanical hypersensitivity, PGE2 ([5]; up to 120 min, Hargreaves (n=10 each) and von Frey (n=6 each)): short-lasting heat and mechanical hypersensitivity to a similar extent in both WT and DKO mice

CC(=O)O [acetic acid]
Writhing behavior [6]: comparable writhing behavior in both WT and DKO mice

CC(C)=O [acetone]
Cold response evoked by acetone [7]: the same between groups

COc1cc(CNC(=O)CCCC/C=C/C(C)C)ccc1O [capsaicin]
Dorsal horn Fos expression, capsaicin-evoked [8]: No differences in dorsal horn Fos expression were observed
Licking behavior, capsaicin ([1]; 0.3% capsaicin, WT n=9, DKO n=8): evoked coping-like licking responses in both genotypes, however responses were variable and although decreased licking was observed in some DKO mice, differences did not reach statistical significance
Swelling of the hindpaw [2]: provoked swelling of the hindpaw of DKO mice to a similar extent as WT mice
Paw oedema (paw volume) [2]: both WT and DKO mice show paw swelling; also recorded: no appreciable differences in capsaicin-induced swelling between WT and DKO mice
CGRP-sniffer calcium response, WT DRG [9]: strong increases in calcium
CGRP-sniffer calcium response, WT DRG ([9]; listed as Capsaicin): increase in CGRP-sniffer GCaMP6s fluorescence
Substance P-sniffer GCaMP response, DKO DRG ([10]; co-culture with DKO DRG neurons): no Substance P-sniffer cell responses
Substance P-sniffer GCaMP response, WT DRG [10]: robust GCaMP responses
Substance P-sniffer GCaMP response, WT DRG ([10]; listed as Capsaicin): increase in Substance P-sniffer GCaMP6s fluorescence
Plasma extravasation [3]: both WT and DKO mice show paw swelling and plasma extravasation; also recorded: plasma extravasation was intact in DKO mice

CCN(CC)CCCC(C)Nc1ccnc2cc(Cl)ccc12 (centres unmarked) [chloroquine]
Scratching [11]: DKO mice scratched robustly following intradermal chloroquine injection, a response indistinguishable from WT animals

O=C1[O][Pt]2([NH][C@@H]3CCCC[C@H]3[NH]2)[O]C1=O [oxaliplatin]
Cold allodynia (literature) [12]: evokes extreme cold allodynia
Cold allodynia, pain-like behaviors [13]: pronounced pain-like behaviors
